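All cell lines were grown in 96-well plates and treated with compound for 48 hours. Here, GI50 denotes the concentration required for 50% inhibition of growth.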 The source made the active and inactive calls. Rule as the data show it: active = GI50 up to about 1.1 µM and inactive = higher.
How the values were obtained:
Assay in all cases: NCI anticancer screen, dose series, 48 h
OVCAR-5 = tested on: OVCAR-5
HL-60 = tested on: HL-60
HCT-15 = tested on: HCT-15
OVCAR-8 = tested on: OVCAR-8
HOP-62 = tested on: HOP-62
SK-MEL-28 = tested on: SK-MEL-28
RXF 393 = tested on: RXF 393
DU-145 = tested on: DU-145
IGROV-1 = tested on: IGROV-1
NCI-H23 = tested on: NCI-H23
T47D = tested on: T47D
UO-31 = tested on: UO-31
MDA-MB-231 = tested on: MDA-MB-231
M14 = tested on: M14
SK-MEL-5 = tested on: SK-MEL-5
DLD-1 = tested on: DLD-1
CAKI-1 = tested on: CAKI-1
SNB-75 = tested on: SNB-75
NCI-H460 = tested on: NCI-H460
COLO 205 = tested on: COLO 205

| Compound | GI50 (OVCAR-5) | GI50 (HL-60) | GI50 (HCT-15) [µM] | GI50 (OVCAR-8) | GI50 (HOP-62) | GI50 (SK-MEL-28) | GI50 (RXF 393) | GI50 (DU-145) | GI50 (IGROV-1) | GI50 (NCI-H23) | GI50 (T47D) | GI50 (UO-31) | GI50 (MDA-MB-231) | GI50 (M14) | GI50 (SK-MEL-5) | GI50 (DLD-1) | GI50 (CAKI-1) | GI50 (SNB-75) | GI50 (NCI-H460) | GI50 (COLO 205) |
| --- | --- | --- | --- | --- | --- | --- | --- | --- | --- | --- | --- | --- | --- | --- | --- | --- | --- | --- | --- | --- |
| O=C1NC2C(=CC(O)C(O)C2O)c2cc3c(cc21)OCO3 (stereo unspecified) | 0.94 µM (active) | 0.108 µM (active) | 0.52 | 0.233 µM (active) | 0.463 µM (active) | 0.417 µM (active) | 0.154 µM (active) | 0.056 µM (active) | 0.494 µM (active) | 0.459 µM (active) | 0.0964 µM (active) | 0.564 µM (active) | 0.0486 µM (active) | 0.244 µM (active) | 0.164 µM (active) | 0.255 µM (active) | 0.28 µM (active) | 0.568 µM (active) | 0.194 µM (active) | 0.2 µM (active) |
| Cc1ccc2c(C)c3ccc4ccccc4c3c[n+]2c1.[O-][Cl+3]([O-])([O-])[O-] | 51.3 µM (inactive) | 31.6 µM (inactive) | 52.1 | 10 µM (inactive) | 13.8 µM (inactive) | 15.3 µM (inactive) | 20.1 µM (inactive) | – | 31.4 µM (inactive) | 14.6 µM (inactive) | – | 33.6 µM (inactive) | – | 17.9 µM (inactive) | 12 µM (inactive) | 37.8 µM (inactive) | 23.9 µM (inactive) | 11.2 µM (inactive) | 14.3 µM (inactive) | 12.2 µM (inactive) |
| O=C(c1ccc(Cl)cc1)N(C(=S)N1CCN(c2ccccn2)CC1)C1CCCCC1 | > 100 µM (inactive) | 17.3 µM (inactive) | 43.8 | > 100 µM (inactive) | 71.8 µM (inactive) | > 100 µM (inactive) | 35.6 µM (inactive) | – | > 100 µM (inactive) | 96.8 µM (inactive) | – | 48.3 µM (inactive) | – | > 100 µM (inactive) | 38.7 µM (inactive) | 81.7 µM (inactive) | > 100 µM (inactive) | > 100 µM (inactive) | 30 µM (inactive) | 44.4 µM (inactive) |
| COC(=O)Cc1cc(=O)oc2c1C(=O)CCC2 | > 100 µM (inactive) | > 100 µM (inactive) | > 100 | > 100 µM (inactive) | > 100 µM (inactive) | > 100 µM (inactive) | > 100 µM (inactive) | – | > 100 µM (inactive) | > 100 µM (inactive) | – | 59.2 µM (inactive) | – | > 100 µM (inactive) | > 100 µM (inactive) | > 100 µM (inactive) | > 100 µM (inactive) | 12.1 µM (inactive) | > 100 µM (inactive) | > 100 µM (inactive) |

Reference: ChEMBL document CHEMBL1201862, “PubChem BioAssay data set” (2004)
